Structures are written as SMILES. Calls of active or inactive are those of the source. The rule behind the calls is not given here.

Here are results for one compound from ChEMBL document CHEMBL1157273, “Sphaeric acid, a new succinic acid derivative from a Sphaeropsis sp” (J Nat Prod, 1999).

Series [1] concerns Aspergillus niger. Description: Antimicrobial activity against Aspergillus niger by disk diffusion assay. It counts as functional, organism-based.
The test system of series [2] is Escherichia coli. Nature of the series: Antimicrobial activity against Escherichia coli by disk diffusion assay. The format is functional, organism-based. (Agar diffusion results depend on both activity and mobility in agar.)
For series [3], the system named is Candida albicans. Description: Antimicrobial activity against Candida albicans by disk diffusion assay. It counts as functional, organism-based.
Series [4] relates to Artemia salina. Nature of the series: Toxicity in Artemia salina after 24 hrs. The format is organism-based. Conditions: in vivo.
For series [5], the system named is Fusarium oxysporum. Description: Antimicrobial activity against Fusarium oxysporum by disk diffusion assay. The format is functional, organism-based.
The subject of series [6] is Geotrichum candidum. Nature of the series: Antimicrobial activity against Geotrichum candidum by disk diffusion assay. The format is functional, organism-based.
For series [7], the system named is Pseudomonas aeruginosa. Description: Antimicrobial activity against Pseudomonas aeruginosa by disk diffusion assay. It counts as functional, organism-based.

Regarding `CCCCCCCC[C@H](C(=O)O)[C@H](C)C(=O)O` [SPHAERIC ACID], the result in series [1], in series [2], in series [3], in series [5], in series [6] and in series [7] was inactive. Also, the Activity result in series [4] was “Non-toxic”.
